Results from PMC5856786, “A DHODH inhibitor increases p53 synthesis and enhances tumor cell killing by p53 degradation blockage” (Nature Communications, 2018).
Where a name gives a salt, the structure may show the parent alone.

Target: recombinant human DHODH (Homo sapiens, UniProt Q02127)
Assay: Endpoint DHODH enzyme assay (coenzyme Q10, DCIP)
Format: biochemical
Parameters: purchased Prospecbio ENZ-642
Conditions: compound at 10 µM
Protocol: In Supplementary Tables 5 and 6, endpoint assays were performed with 10 nM recombinant human DHODH (#ENZ-642, Prospecbio). The reaction mixture consisted of 624.6 µM DL-dihydroorotic acid, 66.4 µM coenzyme Q10, 66.4 µM 2,6-dichlorophenolindophenol sodium salt (DCIP) (all reagents purchased from Sigma-Aldrich) in enzyme buffer (50 mM Tris-HCl, pH 8.0, 0.1% Triton X-100, 150 mM KCl). Loss in absorbance by DCIP was measured at 595 nm after incubation at RT for 60 min.

[1] = Supplementary Table 6, 30,000 compound library
[2] = Supplementary Table 5, 20,000 compound library

Chain of recombinant human DHODH (Q02127 31-395 limits assumed): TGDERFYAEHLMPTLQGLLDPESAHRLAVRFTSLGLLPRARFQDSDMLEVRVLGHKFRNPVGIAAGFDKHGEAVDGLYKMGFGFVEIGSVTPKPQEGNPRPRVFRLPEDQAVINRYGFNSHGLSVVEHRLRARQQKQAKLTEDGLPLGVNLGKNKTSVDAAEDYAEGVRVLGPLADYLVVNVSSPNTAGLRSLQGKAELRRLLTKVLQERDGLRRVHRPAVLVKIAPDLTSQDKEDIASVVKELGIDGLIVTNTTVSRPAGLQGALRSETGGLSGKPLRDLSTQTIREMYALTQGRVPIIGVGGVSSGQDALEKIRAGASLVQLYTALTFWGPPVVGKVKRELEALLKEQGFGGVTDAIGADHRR

O=[N+]([O-])c1ccc2[nH]c3c(c2c1)CCCC3NC1Cc2ccccc2C1 (stereo not shown) [compound 5781444, N-(2,3-dihydro-1H-inden-2-yl)-6-nitro-2,3,4,9-tetrahydro-1H-carbazol-1-amine]
remaining activity at 10 µM [1]: 57.9%

CC1CCC(NC2CCCc3c2[nH]c2ccc([N+](=O)[O-])cc32)C1 (stereo not shown) [compound 5781446, N-(3-methylcyclopentyl)-6-nitro-2,3,4,9-tetrahydro-1H-carbazol-1-amine]
remaining activity at 10 µM [1]: 60.5%

CC1CCC(NC2CCCc3c2[nH]c2ccc([N+](=O)[O-])cc32)CC1 (stereo not shown) [compound 5781447, N-(4-methylcyclohexyl)-6-nitro-2,3,4,9-tetrahydro-1H-carbazol-1-amine]
remaining activity at 10 µM [1]: 56.8%

COc1ccccc1CC(C)NC1CCCc2c1[nH]c1ccc([N+](=O)[O-])cc21 (stereo not shown) [compound 5781453, N-[2-(2-methoxyphenyl)-1-methylethyl]-6-nitro-2,3,4,9-tetrahydro-1H-carbazol-1-amine]
remaining activity at 10 µM [1]: 52.4%

CC(Cc1ccccc1F)NC1CCCc2c1[nH]c1ccc([N+](=O)[O-])cc21 (stereo not shown) [compound 5781454, N-[2-(2-fluorophenyl)-1-methylethyl]-6-nitro-2,3,4,9-tetrahydro-1H-carbazol-1-amine]
remaining activity at 10 µM [1]: 55.4%

CC(C)NC1CCCc2c1[nH]c1ccc([N+](=O)[O-])cc21 (stereo not shown) [compound 5781470, N-isopropyl-6-nitro-2,3,4,9-tetrahydro-1H-carbazol-1-amine]
remaining activity at 10 µM [1]: 90.2%

COc1ccc(C=NN2CCN(Cc3ccccc3)CC2)c(OC)c1 [compound 5783994, 4-benzyl-N-(2,4-dimethoxybenzylidene)-1-piperazinamine]
remaining activity at 10 µM [1]: 101%

Cc1cccc(Cc2cnc(NC(=O)c3ccc(Br)cc3)s2)c1 [compound 5852371, 4-bromo-N-[5-(3-methylbenzyl)-1,3-thiazol-2-yl]benzamide]
remaining activity at 10 µM [1]: 97.6%

COc1ccccc1NC(=O)C1c2ccccc2Oc2ccccc21 [compound 5867214, N-(2-methoxyphenyl)-9H-xanthene-9-carboxamide]
remaining activity at 10 µM [1]: 99.2%

Cc1ccc2[nH]c3c(c2c1)CCCC3NCc1ccccc1 (stereo not shown) [compound 5869604, N-benzyl-6-methyl-2,3,4,9-tetrahydro-1H-carbazol-1-amine hydrochloride]
remaining activity at 10 µM [1]: 27.3%

COc1ccc(Cl)cc1NC1=C(Cl)C(=O)N(c2cccc(C)c2C)C1=O [compound 6149306, 3-chloro-4-[(5-chloro-2-methoxyphenyl)amino]-1-(2,3-dimethylphenyl)-1H-pyrrole-2,5-dione]
remaining activity at 10 µM [1]: 99.6%

CC(C)Oc1ccc(C(=O)NC(=S)Nc2ccc(N3CCCCC3)cc2)cc1 [compound 6497060, 4-isopropoxy-N-({[4-(1-piperidinyl)phenyl]amino}carbonothioyl)benzamide]
remaining activity at 10 µM [1]: 101%

CCOc1ccc(NC(=S)NC(=O)c2ccc(C(C)(C)C)cc2)cc1 [compound 6501326, 4-tert-butyl-N-{[(4-ethoxyphenyl)amino]carbonothioyl}benzamide]
remaining activity at 10 µM [1]: 84.1%

COc1ccc(NC(=S)NC(=O)c2ccc(C(C)(C)C)cc2)c(OC)c1 [compound 6513572, 4-tert-butyl-N-{[(2,4-dimethoxyphenyl)amino]carbonothioyl}benzamide]
remaining activity at 10 µM [1]: 97.8%

CC(C)(C)c1ccc(C(=O)NC(=S)Nc2cccc([N+](=O)[O-])c2)cc1 [compound 6515740, 4-tert-butyl-N-{[(3-nitrophenyl)amino]carbonothioyl}benzamide]
remaining activity at 10 µM [1]: 88.9%

CC(C)(C)c1ccc(C(=O)NC(=S)Nc2cccc(NC(=O)c3ccccc3)c2)cc1 [compound 6519439, N-({[3-(benzoylamino)phenyl]amino}carbonothioyl)-4-tert-butylbenzamide]
remaining activity at 10 µM [1]: 63.2%

Cc1ccccc1NC(=S)NC(=O)c1cccc2c(Br)cccc12 [compound 6592864, 5-bromo-N-{[(2-methylphenyl)amino]carbonothioyl}-1-naphthamide]
remaining activity at 10 µM [2]: 72.2%

Cc1cc(O)c(NC(=S)NC(=O)c2ccc(C(C)(C)C)cc2)cc1C [compound 6611243, 4-tert-butyl-N-{[(2-hydroxy-4,5-dimethylphenyl)amino]carbonothioyl}benzamide]
remaining activity at 10 µM [1]: 51%

O=c1oc2ccccc2cc1-c1cn2cc(Cl)ccc2n1 [compound 6623100, 3-(6-chloroimidazo[1,2-a]pyridin-2-yl)-2H-chromen-2-one]
remaining activity at 10 µM [2]: 96.3%

COc1cc(C=C2N=C(SC)SC2=O)cc(Br)c1OCc1ccccc1 [compound 6638116, 4-[4-(benzyloxy)-3-bromo-5-methoxybenzylidene]-2-(methylthio)-1,3-thiazol-5(4H)-one]
remaining activity at 10 µM [1]: 78.8%

CSC1=NC(=Cc2ccc(OCc3ccccc3)cc2)C(=O)S1 [compound 6638197, 4-[4-(benzyloxy)benzylidene]-2-(methylthio)-1,3-thiazol-5(4H)-one]
remaining activity at 10 µM [1]: 74.9%

c1ccc(OCCNc2ccc3ccccc3c2)cc1 [compound 6641022, 2-naphthyl(2-phenoxyethyl)amine]
remaining activity at 10 µM [1]: 66%

COc1ccc(OC)c(C(C)NC(=O)c2ccco2)c1 (stereo not shown) [compound 6912406, N-[1-(2,5-dimethoxyphenyl)ethyl]-2-furamide]
remaining activity at 10 µM [2]: 93.2%

COc1cc(CNc2ccc(C)c(Cl)c2)cc(Cl)c1OC [compound 7574753, (3-chloro-4,5-dimethoxybenzyl)(3-chloro-4-methylphenyl)amine]
remaining activity at 10 µM [2]: 79.9%

CCN(CC)c1ccc(NC(=S)NC(=O)c2cccc(C)c2OC)cc1 [compound 7578012, N-({[4-(diethylamino)phenyl]amino}carbonothioyl)-2-methoxy-3-methylbenzamide]
remaining activity at 10 µM [2]: 79%

CCOc1cccc2c(C)nc(Nc3nc(=O)c4c([nH]3)CCCC4)nc12 [compound 7587351, 2-[(8-ethoxy-4-methyl-2-quinazolinyl)amino]-5,6,7,8-tetrahydro-4(1H)-quinazolinone]
remaining activity at 10 µM [2]: 92.7%

O=S(=O)(CCSc1nc2ccccc2o1)c1nc2ccccc2s1 [compound 7617239, 2-{[2-(1,3-benzothiazol-2-ylsulfonyl)ethyl]thio}-1,3-benzoxazole]
remaining activity at 10 µM [2]: 103%

CCc1cccc(C)c1NC(=O)CSc1nc2ccccc2c(=O)n1-c1cccc2ccccc12 [compound 7638934, N-(2-ethyl-6-methylphenyl)-2-{[3-(1-naphthyl)-4-oxo-3,4-dihydro-2-quinazolinyl]thio}acetamide]
remaining DHODH activity (%) Average [2]: 72.65%

O=C(Nc1nc2c(s1)CCCC2)C(=O)c1c[nH]c2ccccc12 [compound 7690424, 2-(1H-indol-3-yl)-2-oxo-N-(4,5,6,7-tetrahydro-1,3-benzothiazol-2-yl)acetamide]
remaining activity at 10 µM [2]: 11%

CC1=C(C(=O)Nc2ccc(F)cc2)C(c2ccccc2OCc2ccccc2)C2=C(CCCC2=O)N1 (stereo not shown) [compound 7705624, 4-[2-(benzyloxy)phenyl]-N-(4-fluorophenyl)-2-methyl-5-oxo-1,4,5,6,7,8-hexahydro-3-quinolinecarboxamide]
remaining DHODH activity (%) Average [2]: 104.27%

CCOC(=O)C1=C(C)NC2=C(C(=O)CC(c3ccco3)C2)C1c1cccs1 (stereo not shown) [compound 7706732, ethyl 7-(2-furyl)-2-methyl-5-oxo-4-(2-thienyl)-1,4,5,6,7,8-hexahydro-3-quinolinecarboxylate]
remaining DHODH activity (%) Average [2]: 95.89%
